Experimental findings from ChEMBL document CHEMBL1137630, “Development of resistance in wild-type and hypermutable Pseudomonas aeruginosa strains exposed to clinical pharmacokinetic profiles of meropenem and ceftazidime simulated in vitro” (Antimicrob Agents Chemother, 2007) are described below.

In brackets after ≈: the same amount, converted by molar mass. Activity calls are given as the source filed them.

Series [1] relates to Pseudomonas aeruginosa. Briefly: Antibacterial activity against Pseudomonas aeruginosa PAO1 in in vitro PK/PD model assessed as AAC (0 to 8 hrs) at 2 g infused thrice daily at 8 hrs interval measured after first dose. In kind it is functional.
Series [2] has as its system Pseudomonas aeruginosa. Briefly: Antibacterial activity against Pseudomonas aeruginosa PAO1 assessed as bacterial count in in vitro PK/PD model at 2 g infused every 8 hrs interval measured 40 hrs after first dose relative to initial inoculum. The series is classed as functional, organism-based.
A short description of series [3]: %T>MIC against Pseudomonas aeruginosa PAO1 in in vitro PK/PD model at 2 g infused thrice daily at 8 hrs interval. The series is classed as functional.
Series [4] relates to Pseudomonas aeruginosa. Nature of the series: Antibacterial activity against Pseudomonas aeruginosa PAO1 assessed as reduction of bacterial count in in vitro PK/PD model at 2 g infused every 8 hrs interval measured after first dose relative to initial inoculum. The series is classed as functional, organism-based.
Series [5] is described as follows: %T>MIC against hypermutable Pseudomonas aeruginosa 12-09-15 isolate in in vitro PK/PD model at 2 g infused thrice daily at 8 hrs interval. In kind it is functional.
Series [6] has as its system Pseudomonas aeruginosa. Nature of the series: Antibacterial activity against Pseudomonas aeruginosa PAO1 assessed as reduction of bacterial count in in vitro PK/PD model at 2 g infused every 8 hrs interval measured after second dose relative to initial inoculum. The series is classed as functional.
Series [7] deals with Pseudomonas aeruginosa. Nature of the series: Antibacterial activity against Pseudomonas aeruginosa PAO1 by CLSI broth microdilution method. In kind it is functional. For orientation: Dilution methods test growth across graded concentrations, often in twofold steps.
The test system of series [8] is Pseudomonas aeruginosa. Briefly: Antibacterial activity against Pseudomonas aeruginosa PAO1/CAZ mutant by CLSI broth microdilution method. The series is classed as functional.
Series [9] has as its system Pseudomonas aeruginosa. Nature of the series: microbe, parasite or virus in culture. Conditions: isolate 12-09-15.
Description: Antibacterial activity against hypermutable Pseudomonas aeruginosa isolate 12-09-15 by CLSI broth microdilution method
A short description of series [10]: Half life in in vitro PK/PD model at 2 g infused thrice daily at 8 hrs interval. The series is classed as ADME. The following applies: iv.
The subject of series [11] is Pseudomonas aeruginosa. Nature of the series: Antibacterial activity against Pseudomonas aeruginosa PAO1 in in vitro PK/PD model assessed as AAC (0 to 24 hrs) at 2 g infused thrice daily at 8 hrs interval. The series is classed as functional.
The test system of series [12] is Pseudomonas aeruginosa. Nature of the series: Antibacterial activity against Pseudomonas aeruginosa PAO1 assessed as maximum bactericidal effect in in vitro PK/PD model by measuring change in bacterial count at 2 g infused every 8 hrs interval measured 17.5 hrs after initial dose relative to initial inoculum.
Series [13] can be described thus: Cmax in PK/PD in vitro model infused with 2g at 8hr intervals. The series is classed as ADME. The arrangement: dose 2 g. Conditions: iv.
For series [14], the system named is Pseudomonas aeruginosa. Briefly: Antibacterial activity against Pseudomonas aeruginosa PAO1 at 30 ug/disk in presence of cephalosporinase inhibitor cloxacillin by disk diffusion test. The series is classed as functional. The following applies: read-out: DIZ.
Series [15] concerns Pseudomonas aeruginosa. Nature of the series: Antibacterial activity against Pseudomonas aeruginosa PAO1 at 30 ug/disk in absence of cephalosporinase inhibitor cloxacillin by disk diffusion test. In kind it is functional. The following applies: read-out: DIZ. For orientation: A growth-free zone around the sample is the usual read-out of agar diffusion tests.
Series [16] relates to Pseudomonas aeruginosa. Nature of the series: Antibacterial activity against Pseudomonas aeruginosa PAO1/CAZ mutant at 30 ug/disk in absence of cephalosporinase inhibitor cloxacillin by disk diffusion test. Conditions: read-out: DIZ. The series is classed as functional.
The test system of series [17] is Pseudomonas aeruginosa. Briefly: Antibacterial activity against Pseudomonas aeruginosa PAO1/CAZ mutant at 30 ug/disk in presence of cephalosporinase inhibitor cloxacillin by disk diffusion test. The series is classed as functional. Conditions: read-out: DIZ.
Series [18] has as its system Pseudomonas aeruginosa. Nature of the series: Antibacterial activity against hypermutable Pseudomonas aeruginosa 12-09-15/MEM mutant by broth microdilution method.
The subject of series [19] is Pseudomonas aeruginosa. Briefly: Antibacterial activity against Pseudomonas aeruginosa PAO1/MEM mutant by CLSI broth microdilution method. In kind it is functional.
Series [20] relates to Pseudomonas aeruginosa. Briefly: Antibacterial activity against hypermutable Pseudomonas aeruginosa isolate 12-09-15 in in vitro PK/PD model assessed as AAC (0 to 24 hrs) at 1 g infused thrice daily at 8 hrs interval. The series is classed as functional.
Series [21] deals with Pseudomonas aeruginosa. Nature of the series: Antibacterial activity against Pseudomonas aeruginosa PAO1 assessed as reduction of bacterial count in in vitro PK/PD model at 1 g infused every 8 hrs interval measured after second dose relative to initial inoculum. The series is classed as functional.
Series [22] is described as follows: Half life in in vitro PK/PD model at 1 g infused thrice daily at 8 hrs interval. The series is classed as ADME. The following applies: iv.
In series [23] the test system is Pseudomonas aeruginosa. Briefly: Antibacterial activity against hypermutable Pseudomonas aeruginosa isolate 12-09-15 assessed as bacterial count in in vitro PK/PD model at 1 g infused every 8 hrs interval measured 40 hrs after first dose relative to initial inoculum. The series is classed as functional, organism-based.
A short description of series [24]: Cmax in PK/PD in vitro model infused with 1g at 8hr intervals. The series is classed as ADME. The arrangement: dose 1 g. Conditions: iv.
Series [25] has as its system Pseudomonas aeruginosa. Nature of the series: Antibacterial activity against Pseudomonas aeruginosa PAO1 assessed as bacterial count in in vitro PK/PD model at 1 g infused every 8 hrs interval measured 40 hrs after first dose relative to initial inoculum. In kind it is functional, organism-based.
Series [26] relates to Pseudomonas aeruginosa. Nature of the series: Antibacterial activity against hypermutable Pseudomonas aeruginosa isolate 12-09-15 assessed as maximum bactericidal effect in in vitro PK/PD model by measuring change in bacterial count at 1 g infused every 8 hrs interval measured 3 hrs after first dose relative to initial inoculum. The series is classed as functional.
The subject of series [27] is Pseudomonas aeruginosa. Nature of the series: Antibacterial activity against Pseudomonas aeruginosa PAO1 in in vitro PK/PD model assessed as AAC (0 to 8 hrs) at 1 g infused thrice daily at 8 hrs interval measured after first dose. In kind it is functional.
The test system of series [28] is Pseudomonas aeruginosa. Nature of the series: Antibacterial activity against Pseudomonas aeruginosa PAO1 assessed as maximum bactericidal effect in in vitro PK/PD model by measuring change in bacterial count at 1 g infused every 8 hrs interval measured 1 hr after first dose relative to initial inoculum. In kind it is functional.
Series [29] relates to Pseudomonas aeruginosa. Nature of the series: Antibacterial activity against Pseudomonas aeruginosa PAO1 in in vitro PK/PD model assessed as AAC (0 to 24 hrs) at 1 g infused thrice daily at 8 hrs interval. The series is classed as functional.
The nature of series [30]: Ratio of Cmax in in vitro PK/PD model at 1 g infused at every 8 hrs intervals to MIC for Pseudomonas aeruginosa PAO1. The series is classed as functional.
The nature of series [31]: %T>MIC against hypermutable Pseudomonas aeruginosa isolate 12-09-15 in in vitro PK/PD model at 1 g infused thrice daily at 8 hrs interval. The series is classed as functional.
For series [32], the system named is Pseudomonas aeruginosa. Briefly: Antibacterial activity against Pseudomonas aeruginosa PAO1 assessed as change in bacterial count in in vitro PK/PD model at 1 g infused every 8 hrs interval measured after 8 hrs relative to initial inoculum. In kind it is functional, organism-based.
The subject of series [33] is Pseudomonas aeruginosa. Briefly: Antibacterial activity against hypermutable Pseudomonas aeruginosa isolate 12-09-15 assessed as change in bacterial count in in vitro PK/PD model at 1 g infused every 8 hrs interval measured after 8 hrs relative to initial inoculum. The series is classed as functional, organism-based.
Series [34] can be described thus: Ratio of Cmax in in vitro PK/PD model at 1 g infused at every 8 hrs intervals to MIC for hypermutable Pseudomonas aeruginosa isolate 12-09-15. In kind it is functional.
Series [35] is described as follows: %T>MIC against Pseudomonas aeruginosa PAO1 in in vitro PK/PD model at 1 g infused thrice daily at 8 hrs interval. The series is classed as functional.

In the case of `CC(C)(O/N=C(\C(=O)N[C@@H]1C(=O)N2C(C(=O)[O-])=C(C[n+]3ccccc3)CS[C@H]12)c1csc(N)n1)C(=O)O` [CEFTAZIDIME], the AAC in series [1] is -0.19 deltalog10CFU/ml.hr; in series [11], 9.29 deltalog10CFU/ml.hr. The result in series [2] and in series [4] was inactive. For the same molecule, the results for the T>MIC in series [3] and in [5] were 100% and 45.8%, respectively. Also, the “fold change (FC)” value in series [6] worked out at 1. The MIC in series [7] came out at 2 mg/L (≈ 3.66 µM); in [8], 32 mg/L (≈ 58.5 µM); in series [9] it was 16 mg/L (≈ 29.3 µM). In [10], the half-life was 1.96 h. Further, in series [12], the deltalog10CFU was -1.28 /ml. The molecule further came in with a Cmax in [13] of 174 µg/mL. For the same molecule, the zone of inhibition at 30 µg/disc was 27 mm in series [14], 27 mm in series [15], 17 mm in [16] and 27 mm in series [17].
On to `C[C@@H](O)[C@H]1C(=O)N2C(C(=O)O)=C(SCCNC=N)C[C@H]12` [IMIPENEM ANHYDROUS], for which the MIC in [18] was 16 mg/L (≈ 53.4 µM); in series [7] it was 2 mg/L (≈ 6.68 µM); in series [9], 4 mg/L (≈ 13.4 µM); in series [19], 16 mg/L (≈ 53.4 µM).
As for `C[C@H]1COc2c(N3CCN(C)CC3)c(F)cc3c(=O)c(C(=O)O)cn1c23.C[C@H]1COc2c(N3CCN(C)CC3)c(F)cc3c(=O)c(C(=O)O)cn1c23.O` [LEVOFLOXACIN], the MIC in [7], in series [8] and in series [19] was 0.5 mg/L in each case.
`C[C@@H](O)[C@H]1C(=O)N2C(C(=O)O)=C(S[C@@H]3CN[C@H](C(=O)N(C)C)C3)[C@H](C)[C@H]12` [MEROPENEM]: the MIC in series [18] was found to be 16 mg/L (≈ 41.7 µM); in series [7] it was 0.5 mg/L (≈ 1.3 µM); in series [9], 2 mg/L (≈ 5.22 µM); in series [19], 4 mg/L (≈ 10.4 µM). The AAC in [20] is -19.58 deltalog10CFU/ml.hr; in [27], 5.3 deltalog10CFU/ml.hr; in series [29], -22.46 deltalog10CFU/ml.hr. Further, the deltalog10CFU in [21] is -0.83 /ml; in series [26], -1.23 /ml; in series [28], -1.09 /ml. This molecule showed a half-life in [22] of 0.45 h. Moreover, the outcome in series [23], in [25], in [32] and in series [33] was inactive. In series [24], this molecule came in with a peak concentration (Cmax) of 56.1 µg/mL. In addition, the Ratio is 112 in [30] and 28.1 in series [34]. Further, the T>MIC came to 41.7% in series [31] and 66.7% in [35].
Regarding `CCN1CCN(C(=O)N[C@@H](C(=O)N[C@@H]2C(=O)N3[C@@H]2SC(C)(C)[C@@H]3C(=O)O)c2ccccc2)C(=O)C1=O` [PIPERACILLIN], the MIC in [7] came out at 4 mg/L (≈ 7.73 µM); in series [8] it was 64 mg/L (≈ 124 µM).

As a reminder, the half-life is the time needed for the level to fall by half in the phase considered. Low values mean fast loss, high ones slow loss. By Cmax is commonly meant the maximum level reached in the sampled fluid or tissue.
